Measured values reported in BindingDB's records for doi:10.1016/0006-291x(92)90654-4 (Veterans Affairs Medical Center, 1992).

Molecular target: 5-hydroxytryptamine receptor 1B (Homo sapiens, UniProt P28222)
Sequence (P28222 whole entry): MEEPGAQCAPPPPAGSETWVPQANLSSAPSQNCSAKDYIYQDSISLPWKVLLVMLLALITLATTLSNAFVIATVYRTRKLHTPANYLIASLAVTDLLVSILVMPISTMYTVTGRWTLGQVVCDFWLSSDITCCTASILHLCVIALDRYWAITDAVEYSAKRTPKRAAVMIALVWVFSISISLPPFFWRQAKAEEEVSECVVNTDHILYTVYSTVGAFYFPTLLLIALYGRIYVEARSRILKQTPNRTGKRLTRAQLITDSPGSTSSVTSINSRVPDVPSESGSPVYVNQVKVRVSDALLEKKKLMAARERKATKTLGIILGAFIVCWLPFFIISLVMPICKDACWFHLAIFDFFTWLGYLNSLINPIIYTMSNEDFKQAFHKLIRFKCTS

Row | SMILES | Ki [nM]
1 | CN1C2CCC1CC(OC(=O)c1c[nH]c3ccccc13)C2 (stereo unspecified) | > 10000
2 | COc1ccc2[nH]cc(C3=CCNCC3)c2c1 [5-Methoxy-3-(1,2,3,6-tetrahydro-pyridin-4-yl)-1H-indole(RU-24969)] | 12.4
3 | CN1CC(C(=O)N[C@]2(C)O[C@@]3(O)C4CCCN4C(=O)[C@H](Cc4ccccc4)N3C2=O)CC2c3cccc4[nH]cc(c34)CC21 (stereo partly drawn) [7-Methyl-4,6,6a,7,8,9,10,10a-octahydro-indolo[4,3-fg]quinoline-9-carboxylic acid ((2R,5S,10bS)-5-benzyl-10b-hydroxy-2-methyl-3,6-dioxo-octahydro-oxazolo[3,2-a]pyrrolo[2,1-c]pyrazin-2-yl)-amide] | 0.006
4 | O=C(CCCN1CCC2(CC1)C(=O)NCN2c1ccccc1)c1ccc(F)cc1 [8-[4-(4-fluorophenyl)-4-oxidanylidene-butyl]-1-phenyl-1,3,8-triazaspiro[4.5]decan-4-one] | > 10000
5 | CN1CCN(c2nc3cc(C(F)(F)F)ccc3n3cccc23)CC1 [CAS_109028-10-6] | 0.04
6 | CN1C[C@@H](NS(=O)(=O)N(C)C)C[C@@H]2c3cccc4c3c(cn4C)C[C@H]21 [MESULERGINE] | 640
7 | CC(C)(C)NCC(O)COc1cccc2[nH]c(C#N)cc12 (stereo unspecified) [NSC_155346] | 22
8 | Cc1cc(C(C)(C)C)c(O)c(C)c1CC1=NCCN1 [SMR000059324] | 0.26
9 | FC(F)(F)c1cccc(N2CCNCC2)c1 [TFMPP] | 28
10 | Clc1cccc(N2CCNCC2)c1 [mCPP] | 90
11 | CSc1ccc2c(c1)C(N1CCN(C)CC1)Cc1ccccc1S2 (stereo unspecified) [methanesulfonic acid;1-methyl-4-(3-methylsulfanyl-5,6-dihydrobenzo[b][1]benzothiepin-5-yl)piperazine] | 0.2
